pIC50: −log10 of the molar value. Where a SMILES comes first, the peptide text is derived from it. Bridges are numbered along the chain shown (N, C = ends). [ ]: non-standard residue; d: D form. The star is where a group is joined. NH(4-(3-pyridyl)butyl) = c1cncc(CCCCN*)c1; NH(2-(3-pyridyl)ethyl) = c1cncc(CCN*)c1; 2Nal = N[C@@H](Cc1ccc2ccccc2c1)C(=O)O; AEF = NCCOc1ccc(C[C@H](N)C(=O)O)cc1; β3hE = N[C@@H](CCC(=O)O)CC(=O)O; αMeL = CC(C)C[C@](C)(N)C(=O)O
Target: T1, human IL-23R (Homo sapiens, UniProt Q5VWK5)
T1 sequence (Q5VWK5 22-629): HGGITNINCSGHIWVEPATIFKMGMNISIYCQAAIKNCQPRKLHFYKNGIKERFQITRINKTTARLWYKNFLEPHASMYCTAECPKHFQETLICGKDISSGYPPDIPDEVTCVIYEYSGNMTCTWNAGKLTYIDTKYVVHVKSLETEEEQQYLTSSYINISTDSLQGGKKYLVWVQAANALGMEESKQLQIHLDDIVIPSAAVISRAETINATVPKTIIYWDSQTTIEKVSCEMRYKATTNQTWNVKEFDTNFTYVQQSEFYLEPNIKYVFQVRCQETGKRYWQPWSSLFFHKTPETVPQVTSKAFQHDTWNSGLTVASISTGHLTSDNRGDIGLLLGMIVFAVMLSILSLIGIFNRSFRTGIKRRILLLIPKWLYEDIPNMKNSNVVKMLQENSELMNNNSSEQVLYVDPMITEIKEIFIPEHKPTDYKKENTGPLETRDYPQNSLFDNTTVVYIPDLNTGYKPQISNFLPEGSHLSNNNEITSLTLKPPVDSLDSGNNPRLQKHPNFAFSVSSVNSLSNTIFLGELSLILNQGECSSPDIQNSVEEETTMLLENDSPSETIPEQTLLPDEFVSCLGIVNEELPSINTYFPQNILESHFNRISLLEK
Experiment: biochemical
Details: for Emax: read-out: % displacement (hIL-23R NIuc)
Text: The compound binding affinity for IL-23R was estimated by the ability of compounds to displace a fluorophore-labelled reference compound from the human IL-23R. The assay principle relies on Bioluminescence Resonance Energy Transfer (BRET) between a fluorophore-labelled reference compound binding to the IL-23R part of a fusion protein consisting of the IL-23R fused to a Nanoluc luciferase enzyme (Nanoluc). The Nanoluc is placed in the N-terminus in close proximity to the binding domain of the ligand. Upon close proximity between the fluorophore of the fluorophore-labelled compound and the Nanoluc of the fusion protein, bioluminescence energy generated from conversion of a Nanoluc substrate, is transferred to the fluorophore resulting in an increase in BRET. In presence of an unlabelled compound, the unlabelled compound displaces the fluorophore-labelled peptide from its binding site resulting in a decrease in BRET. The concentration for which half of the fluorophore-labelled peptide is displaced by the unlabelled compound depends on the affinity of the compound for the IL-23R, and is termed the IC50 concentration.
The plasmid also contained a gene to confer resistance for the antibiotic hygromycin. A cell line stably expressing the Nluc-IL23R fusion protein was generated by transfection of HEK293 cells with the expression plasmid and selected with hygromycin for 3 weeks in Growth medium consisting of DMEM w/ Glutamax-I containing, 10% V/V FBS, 1% V/V P/S, 1 mM Sodium Pyruvate, and 1X NEAA, and 0.3 mg/mL hygromycin. The remaining cells were propagated and considered a stable expressing Nluc-IL23R fusion protein pool clone.
Cells expressing the Nluc-IL23R fusion protein were expanded in Growth medium and membranes prepared by homogenization of a cell pellet from 18 T175 flasks (4 °C in subsequent steps). The cell pellet was lysed Tris 10 mM, 7.5, 1 mM EDTA and protease inhibitors (Complete, Roche) and homogenized using a 15 mL glass-dounce by 50 strokes. The homogenate was spun at spin @1500 rpm for 10 min, the supernatant transferred to SV-34 tubes and spun at 40000g for 20 min at 4 °C to pellet the crude membranes. The supernatant was then removed, the pellet resuspended in 5 mL buffer containing 50 mM HEPES pH 7.4, 5 mM EGTA, and 5 mM MgCl2, and homogenized. Aliquots of the resuspended and homogenized membranes containing the Nluc-IL23R fusion protein were stored at -80 °C until use.
The plate was sealed with light impermeable plate seals, and incubated on an orbital shaker 400 rpm for 2 hours at room temperature. To determine the BRET ratio, the plate seal was removed and 25 µL of the Nanoluc substrate (Promega N1572) diluted 1:500 was added to each well and incubated for 1-2 minutes on an orbital shaker at 400 rpm. […] The BRET ratio was calculated as the fluorescence from the TAMRA/nanoluc bioluminescence.
Compound potency (IC50) and maximal displacement (% displacement) were estimated by computer-aided curve fitting using a 4-parameter logistic (4PL) non-linear model. […]
In this application, the inventors provide the data as IC50 values.

Row | SMILES | pIC50 | Emax | % displacement (hIL-23R NIuc)
1 | CC[C@H](C)[C@@H]1NC(=O)[C@@H]2CCCCNC(=O)CC[C@@H](CC(=O)NCCc3cccnc3)NC(=O)[C@](C)(CC(C)C)NC(=O)[C@H](Cc3ccc4ccccc4c3)NC(=O)[C@H](Cc3ccc(OCCN)cc3)NC(=O)[C@H](CCC(=O)N2)NC(=O)[C@H](CCC(N)=O)NC(=O)[C@H](Cc2c[nH]c3ccccc23)NC(=O)[C@H](C(C)C)NC1=O [Compound 65, K(1c)(6c)^†IVWQE(6c)[Y(2-aminoethoxy)][2-Nal][2-Me-Leu][beta-hGlu](1c)-[NH-2-(pyridin-3-yl)ethyl]] (KIVWQE[AEF][2Nal][αMeL][β3hE]-{NH(2-(3-pyridyl)ethyl)}; lactam 1-10, N-6) | 6.85 | 99% | –
2 | CNC(=O)[C@H](Cc1cccnc1)NC(=O)[C@H](CCN)NC(=O)[C@@H]1CCC(=O)NCCCC[C@@H]2NC(=O)CC[C@H](NC(=O)[C@H](CCC(N)=O)NC(=O)[C@H](Cc3c[nH]c4ccccc34)NC(=O)C[C@H]([C@@H](C)O)NC2=O)C(=O)N[C@@H](Cc2ccc(OCCN)cc2)C(=O)N[C@@H](Cc2ccc3ccccc3c2)C(=O)N[C@@](C)(CC(C)C)C(=O)N1 [Compound 97, K(1c)(6c)^†[beta-hThr]WQE(6c)[Y(2-aminoethoxy)][2-Nal][2-Me-Leu]E(1c)[Dab][3-(3-Pyridyl)-Ala]-[NHMe]] | 10.21 | – | 101%
3 | CC(C)[C@@H]1NC(=O)[C@H](CO)NC(=O)[C@@H]2CCCCNC(=O)CC[C@@H](C(=O)NCCCCc3cccnc3)NC(=O)CNC(=O)[C@H](Cc3ccc4ccccc4c3)NC(=O)[C@H](Cc3ccc(OCCN)cc3)NC(=O)[C@H](CCC(=O)N2)NC(=O)[C@H](CCC(N)=O)NC(=O)[C@H](Cc2c[nH]c3ccccc23)NC1=O [Compound 31, K(1c)(6c)^†SVWQE(6c)[Y(2-aminoethoxy)][2-Nal]GE(1c)-[NH-4-(pyridin-3-yl)butanyl]] (KSVWQE[AEF][2Nal]GE-{NH(4-(3-pyridyl)butyl)}; lactam 1-10, N-6) | – | – | 98%
4 | CC[C@H](C)[C@@H]1NC(=O)[C@@H]2CCCCNC(=O)CC[C@@H](C(=O)NCCc3cccnc3)NC(=O)[C@](C)(C(C)C)NC(=O)[C@H](Cc3ccc4ccccc4c3)NC(=O)[C@H](Cc3ccc(OCCN)cc3)NC(=O)[C@@H](CCC(=O)N2)NC(=O)[C@H](CCC(N)=O)NC(=O)[C@H](Cc2c[nH]c3ccccc23)NC(=O)[C@H](C(C)C)NC1=O [Compound 27, K(1c)(6c)^†VWQ[{d}E](6c)[Y(2-aminoethoxy)][2-Nal][2-Me-Val]E(1c)-[NH-2-(pyridin-3-yl)ethyl]] | 6.96 | – | 102%
5 | CNC(=O)[C@H](Cc1cccnc1)NC(=O)[C@H](CCN)NC(=O)[C@@H]1CCC(=O)N[C@H]2CCNC(=O)CC[C@H](NC(=O)[C@H](CCC(N)=O)NC(=O)[C@H](Cc3c[nH]c4ccccc34)NC(=O)CNC2=O)C(=O)N[C@@H](Cc2ccc(OCCN)cc2)C(=O)N[C@@H](Cc2ccc3ccccc3c2)C(=O)N[C@@](C)(CC(C)C)C(=O)N1 [Compound 105, [iso-Dab](1c)^†(6c)GWQE(6c)[Y(2-aminoethoxy)][2-Nal][2-Me-Leu]E(1c)[Dab][3-(3-Pyridyl)-Ala]-[NHMe]] | 7.96 | 101% | –
6 | CC[C@H](C)[C@@H]1NC(=O)[C@@H]2CCCCNC(=O)CC[C@@H](C(=O)N[C@@H](CCN)C(=O)NCCCc3cccnc3)NC(=O)[C@](C)(CC(C)C)NC(=O)[C@H](Cc3ccc4ccccc4c3)NC(=O)[C@H](Cc3ccc(OCCN)cc3)NC(=O)[C@H](CCC(=O)N2)NC(=O)[C@H](CCC(N)=O)NC(=O)[C@H](Cc2c[nH]c3ccccc23)NC(=O)[C@H](C(C)C)NC1=O [Compound 67, K(1c)(6c)^†IVWQE(6c)[Y(2-aminoethoxy)][2-Nal][2-Me-Leu]E(1c)[Dab]-[NH-3-(pyridin-3-yl)propyl]] | 8.59 | 102% | –
7 | CC[C@H](C)[C@@H]1NC(=O)[C@@H]2CCCCNC(=O)CC[C@@H](C(=O)NCC(=O)N[C@H](Cc3cccnc3)C(N)=O)NC(=O)[C@](C)(C(C)C)NC(=O)[C@H](CC3CC3)NC(=O)[C@H](Cc3ccc(C)cc3)NC(=O)[C@H](CCC(=O)N2)NC(=O)[C@H](CCC(N)=O)NC(=O)[C@H](Cc2c[nH]c3ccccc23)NC(=O)[C@H](C(C)C)NC1=O [Compound 23, K(1c)(6c)^†IVWQE(6c)[F(4-Me)][Cyclopropyl-Ala][2-Me-Val]E(1c)G[{d}3-(3-Pyridyl)-Ala]-[NH2]] | 7.05 | – | 111%
8 | COc1ccc(C[C@@H]2NC(=O)[C@@H]3CCC(=O)N[C@@H](CCCCNC(=O)CC[C@@H](C(=O)N[C@@H](CCCCNC(=O)c4cncnc4)C(N)=O)NC(=O)[C@](C)(CC(C)C)NC(=O)[C@H](Cc4ccc5ccccc5c4)NC2=O)C(=O)N[C@@H]([C@@H](C)O)C(=O)N[C@@H](C(C)C)C(=O)N[C@@H](Cc2c[nH]c4ccccc24)C(=O)N[C@@H](CCC(N)=O)C(=O)N3)cc1 [Compound 56, K(1c)(6c)^†TVWQE(6c)[Y(Me)][2-Nal][2-Me-Leu]E(1c)[K(3,5-pyrimidine)]-[NH2]] | 6.68 | 98% | –
9 | COc1ccc(C[C@@H]2NC(=O)[C@@H]3CCC(=O)N[C@@H](CCCCNC(=O)CC[C@@H](C(=O)N[C@@H](CCCCNC(=O)CCc4ncc[nH]4)C(N)=O)NC(=O)[C@](C)(CC(C)C)NC(=O)[C@H](Cc4ccc5ccccc5c4)NC2=O)C(=O)N[C@@H]([C@@H](C)O)C(=O)N[C@@H](C(C)C)C(=O)N[C@@H](Cc2c[nH]c4ccccc24)C(=O)N[C@@H](CCC(N)=O)C(=O)N3)cc1 [Compound 59, K(1c)(6c)^†TVWQE(6c)[Y(Me)][2-Nal][2-Me-Leu]E(1c)[K(Imidazolepropanoyl)]-[NH2]] | 6.48 | – | –
10 | CC(C)C[C@]1(C)NC(=O)[C@H](Cc2ccc3ccccc3c2)NC(=O)[C@H](Cc2ccc(OCCN)cc2)NC(=O)[C@@H]2CCC(=O)N[C@@H](CCCCCNC(=O)CC[C@@H](C(=O)N[C@@H](CCN)C(=O)N[C@@H](Cc3cccnc3)C(N)=O)NC1=O)C(=O)N[C@@H]([C@@H](C)O)C(=O)N[C@@H](C(C)C)C(=O)N[C@@H](Cc1c[nH]c3ccccc13)C(=O)N[C@@H](CCC(N)=O)C(=O)N2 [Compound 4, [hLys](1c)(6c)^†TVWQE(6c)[Y(2-aminoethoxy)][2-Nal][2-Me-Leu]E(1c)[Dab][3-(3-Pyridyl)-Ala]-[NH2]] | 10.54 | 102% | –
11 | CNC(=O)[C@H](Cc1cccnc1)NC(=O)[C@H](CCN)NC(=O)[C@@H]1CCC(=O)NC[C@@H]2NC(=O)CC[C@H](NC(=O)[C@H](CCC(N)=O)NC(=O)[C@H](Cc3c[nH]c4ccccc34)NC2=O)C(=O)N[C@@H](Cc2ccc(OCCN)cc2)C(=O)N[C@@H](Cc2ccc3ccccc3c2)C(=O)N[C@@](C)(CC(C)C)C(=O)N1 [Compound 95, [Dpr](1c)(6c)^†WQE(6c)[Y(2-aminoethoxy)][2-Nal][2-Me-Leu]E(1c)[Dab][3-(3-Pyridyl)-Ala]-[NHMe]] | 7.77 | 98% | –
12 | CNC(=O)[C@H](Cc1cccnc1)NC(=O)[C@H](CCN)NC(=O)[C@@H]1CCC(=O)NCCCC[C@H]2C(=O)N[C@@H]([C@@H](C)O)C(=O)N[C@@H](Cc3c[nH]c4ccccc34)C(=O)N[C@@H](CCC(N)=O)C(=O)N[C@@H](Cc3cn2nn3)C(=O)N[C@@H](Cc2ccc(OCCN)cc2)C(=O)N[C@@H](Cc2ccc3ccccc3c2)C(=O)N[C@@](C)(CC(C)C)C(=O)N1 [Compound 41, [(N3)-K](1c)(6g)^†TWQ[Pra](6g)[Y(2-aminoethoxy)][2-Nal][2-Me-Leu]E(1c)[Dab][3-(3-Pyridyl)-Ala]-[NHMe]] | 8.82 | 98% | –

Source: patent EP4471048A1, “PEPTIDE INHIBITORS OF INTERLEUKIN-23 RECEPTOR” (Zealand Pharma A/S, priority 2023, dated 2024)
